Data set [1] concerns Mus musculus. As to the kind of experiment: Antagonist activity at mesolimbic dopaminergic D2 receptor in Swiss albino Mus musculus (mouse) assessed as inhibition of apomorphine-induced cage climbing behavior at 10 mg/kg, ip administered 1 hr prior to apomorphine challenge measured after 20 min relative to vehicle-treated control. It is filed as functional. Particulars: route intraperitoneal.

The subject of data set [2] is Mus musculus. In words: Antagonist activity at mesolimbic dopaminergic D2 receptor in Swiss albino Mus musculus (mouse) assessed as inhibition of apomorphine-induced cage climbing behavior at 10 mg/kg, ip administered 1 hr prior to apomorphine challenge measured after 10 min relative to vehicle-treated control. It is filed as functional. Particulars: route intraperitoneal.

Data set [3] concerns Mus musculus. In words: Antagonist activity at central serotonergic 5-HT2A receptor in Swiss albino Mus musculus (mouse) assessed as inhibition of quipazine meleate-induced head twiches at 10 mg/kg, ip administered 1 hr prior to quipazine meleate challenge measured after 30 to 40 min relative to vehicle-treated control. Conditions: route intraperitoneal. It is filed as functional.

Data set [4] concerns the target D(2) dopamine receptor (Rattus norvegicus) (UniProt P61169). In words: Displacement of [3H]spiperone from D2 receptor in Rattus norvegicus (rat) straitum membrane homogenates at 10 uM after 60 min by liquid scintillation counting analysis. A general note: In a radioligand displacement assay an active substance lowers the binding of a labelled ligand.
The target of data set [5] is 5-hydroxytryptamine receptor 2A (Rattus norvegicus) (UniProt P14842). As to the kind of experiment: Displacement of [3H]ketanserin from 5-HT2A receptor in Rattus norvegicus (rat) cortex membrane homogenates up to 1 uM after 90 min by liquid scintillation counting analysis.
Chain of 5-hydroxytryptamine receptor 2A (Rattus norvegicus) (P14842 whole entry): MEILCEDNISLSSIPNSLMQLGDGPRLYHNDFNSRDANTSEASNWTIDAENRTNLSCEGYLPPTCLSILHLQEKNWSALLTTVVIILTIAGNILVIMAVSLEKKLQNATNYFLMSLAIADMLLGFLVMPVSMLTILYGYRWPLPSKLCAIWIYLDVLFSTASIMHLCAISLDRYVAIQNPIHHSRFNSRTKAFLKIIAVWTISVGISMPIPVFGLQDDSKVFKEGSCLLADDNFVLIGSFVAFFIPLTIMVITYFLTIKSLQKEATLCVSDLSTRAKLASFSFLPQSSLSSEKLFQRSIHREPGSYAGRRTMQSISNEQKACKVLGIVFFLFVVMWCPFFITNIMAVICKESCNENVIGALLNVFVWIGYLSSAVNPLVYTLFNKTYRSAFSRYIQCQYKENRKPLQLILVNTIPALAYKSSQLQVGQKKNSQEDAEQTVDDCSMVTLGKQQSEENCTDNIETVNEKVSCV
In data set [6] the target is D(2) dopamine receptor (Rattus norvegicus) (UniProt P61169). In words: Displacement of [3H]spiperone from dopaminergic D2 receptor in Rattus norvegicus (rat) straitum membrane homogenates up to 1 uM after 60 min by liquid scintillation counting analysis.
Chain of D(2) dopamine receptor (Rattus norvegicus) (P61169 whole entry): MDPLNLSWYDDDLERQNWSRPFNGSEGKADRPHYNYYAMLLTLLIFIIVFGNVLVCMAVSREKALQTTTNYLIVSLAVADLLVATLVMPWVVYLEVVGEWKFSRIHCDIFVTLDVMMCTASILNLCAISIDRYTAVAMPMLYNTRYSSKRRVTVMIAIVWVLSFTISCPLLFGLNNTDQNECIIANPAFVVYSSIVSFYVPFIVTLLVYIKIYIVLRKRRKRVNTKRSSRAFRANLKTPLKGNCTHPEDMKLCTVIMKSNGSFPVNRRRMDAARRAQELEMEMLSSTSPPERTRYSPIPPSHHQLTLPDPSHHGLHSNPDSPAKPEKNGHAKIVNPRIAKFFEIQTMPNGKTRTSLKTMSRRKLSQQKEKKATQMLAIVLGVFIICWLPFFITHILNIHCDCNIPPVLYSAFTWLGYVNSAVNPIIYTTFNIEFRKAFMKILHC
In data set [7] the test system is Mus musculus. In words: Selectivity ratio of inhibition of 5-HT2A receptor in Swiss albino Mus musculus (mouse) to inhibition of dopaminergic D2 receptor in Swiss albino Mus musculus (mouse) at 10 mg/kg, ip. Conditions: route intraperitoneal. It is filed as functional.
In data set [8] the target is D(2) dopamine receptor (Rattus norvegicus) (UniProt P61169). As to the kind of experiment: Displacement of [3H]spiperone from D2 receptor in Rattus norvegicus (rat) straitum membrane homogenates at 100 uM after 60 min by liquid scintillation counting analysis.
The target of data set [9] is 5-hydroxytryptamine receptor 2A (Rattus norvegicus) (UniProt P14842). In words: Displacement of [3H]ketanserin from 5-HT2A receptor in Rattus norvegicus (rat) cortex membrane homogenates at 10 uM after 90 min by liquid scintillation counting analysis.
In data set [10] the test system is Mus musculus. In words: In vivo inhibition of 5-HT2A receptor in Swiss albino Mus musculus (mouse) at 10 mg/kg, ip relative to vehicle-treated control. It is filed as functional. Conditions: route intraperitoneal.
For data set [11], the system named is Mus musculus. In words: Antagonist activity at mesolimbic dopaminergic D2 receptor in Swiss albino Mus musculus (mouse) assessed as inhibition of apomorphine-induced cage climbing behavior at 10 mg/kg, ip administered 1 hr prior to apomorphine challenge measured after 30 min relative to vehicle-treated control. It is filed as functional. Particulars: route intraperitoneal.

Data set [12] has as its system Mus musculus. As to the kind of experiment: Antagonist activity at nigrostriatal dopaminergic D2 receptor in Swiss albino Mus musculus (mouse) assessed as maximum average cataleptic time at 10 mg/kg, ip after 1 to 5 hr relative to vehicle-treated control. It is filed as organism-based. Also on record: dose 10 mg/kg, route intraperitoneal. Conditions: in vivo.
In data set [13] the test system is Mus musculus. As to the kind of experiment: In vivo inhibition of dopaminergic D2 receptor in Swiss albino Mus musculus (mouse) at 10 mg/kg, ip relative to vehicle-treated control. It is filed as functional. Particulars: route intraperitoneal.
The subject of data set [14] is Mus musculus. In words: Antagonist activity at nigrostriatal dopaminergic D2 receptor in Swiss albino Mus musculus (mouse) assessed as maximum average cataleptic time at 0.6 mg/kg, ip after 1 to 5 hr relative to vehicle-treated control. Particulars: in vivo. Also on record: dose 0.6 mg/kg, route intraperitoneal. It is filed as organism-based.
Data set [15] deals with Mus musculus. In words: Antagonist activity at mesolimbic dopaminergic D2 receptor in Swiss albino Mus musculus (mouse) assessed as inhibition of apomorphine-induced cage climbing behavior at 0.6 mg/kg, ip administered 1 hr prior to apomorphine challenge measured after 30 min relative to vehicle-treated control. It is filed as functional. Particulars: route intraperitoneal.

Data set [16] deals with Mus musculus. In words: Antagonist activity at mesolimbic dopaminergic D2 receptor in Swiss albino Mus musculus (mouse) assessed as inhibition of apomorphine-induced cage climbing behavior at 0.6 mg/kg, ip administered 1 hr prior to apomorphine challenge measured after 20 min relative to vehicle-treated control. It is filed as functional. Conditions: route intraperitoneal.

In data set [17] the test system is Mus musculus. In words: Antagonist activity at mesolimbic dopaminergic D2 receptor in Swiss albino Mus musculus (mouse) assessed as inhibition of apomorphine-induced cage climbing behavior at 0.6 mg/kg, ip administered 1 hr prior to apomorphine challenge measured after 10 min relative to vehicle-treated control. It is filed as functional. Particulars: route intraperitoneal.

Data set [18] relates to Mus musculus. As to the kind of experiment: Antagonist activity at central serotonergic 5-HT2A receptor in Swiss albino Mus musculus (mouse) assessed as inhibition of quipazine meleate-induced head twiches at 0.6 mg/kg, ip administered 1 hr prior to quipazine meleate challenge measured after 30 to 40 min relative to vehicle-treated control. It is filed as functional. Conditions: route intraperitoneal.

Active and inactive are the calls of the source. The calls are words filed in the database; no cut-off is given here.

Usually inhibition in vivo stands for the drop in the measured response relative to a control, in per cent. The inhibition is the change of the read-out against control, counted positive when it falls.

On to `Nc1nc(-c2ccc(CCN3CCN(c4cnc5ccccc5n4)CC3)cc2)cs1`, for which the inhibition in vivo at 10 mg/kg turned out to be 75% with Mus musculus [1]; 60% in the data set on Mus musculus [2]; 15% in the data set with Mus musculus [3]; 15% in the data set with Mus musculus [10]; 65% with Mus musculus [11]. Also, the inhibition result in [4], in data set [5] and in data set [6] was “inactive” throughout. For the same molecule, in the data set with Mus musculus [7], the Selectivity ratio came to 0.2. The inhibition in data set [8] worked out at 26%; in [9], 51%. For the same molecule, in the data set on Mus musculus [12], the Time came out at 9.21 s. This molecule registered an Imax with Mus musculus [13] of 75%.
In the case of `COc1nc2ccccc2nc1N1CCN(CCc2ccc(-c3csc(N)n3)cc2)CC1`, the inhibition in vivo at 10 mg/kg is 60% in the data set with Mus musculus [1]; 60% in the data set with Mus musculus [2]; 12% with Mus musculus [3]; 12% with Mus musculus [10]; 65% in the data set with Mus musculus [11]. Moreover, the inhibition result in [4], in data set [5] and in [6] was “inactive” throughout. Further, in the data set on Mus musculus [7], the Selectivity ratio is 0.1846. In addition, the inhibition in [8] was found to be 24%; in data set [9], 49%. Besides, the Time in the data set with Mus musculus [12] is listed as 14.12 s. The molecule also returned an Imax with Mus musculus [13] of 65%.
Regarding `Cc1nc2n(c(=O)c1CCN1CCC(c3noc4cc(F)ccc34)CC1)CCCC2` [RISPERIDONE], the Time in the data set with Mus musculus [14] is recorded as 2.54 s. Moreover, the inhibition in vivo at 0.6 mg/kg was determined as 90% in the data set on Mus musculus [15], 91% in the data set on Mus musculus [16], 91% with Mus musculus [17] and 100% in the data set with Mus musculus [18]. Besides, in the data set with Mus musculus [7], the Selectivity ratio is 1.0989. The molecule further displayed an inhibition in vivo at 10 mg/kg in the data set on Mus musculus [10] of 100%. In addition, in the data set with Mus musculus [13], the Imax is on record as 91%.
Consider `Cc1nc(-c2ccc(CCN3CCN(c4cnc5ccccc5n4)CC3)cc2)cs1`, for which the inhibition in vivo at 10 mg/kg in the data set with Mus musculus [1] was determined as 55%; in the data set on Mus musculus [2] it was 75%; with Mus musculus [3], 77%; with Mus musculus [10], 77%; with Mus musculus [11] it was 85%. Also, the inhibition entry in data set [4], in [5] and in [6] was “inactive” throughout. The Selectivity ratio with Mus musculus [7] was 0.9059. Moreover, the results for the inhibition in [8] and in [9] were 30% and 63%, respectively. Also, the Time in the data set on Mus musculus [12] was determined as 5.17 s. In addition, in the data set on Mus musculus [13], the Imax is recorded as 85%.
Turning to `COc1nc2ccccc2nc1N1CCN(CCc2ccc(-c3csc(C)n3)cc2)CC1`, the inhibition in vivo at 10 mg/kg in the data set on Mus musculus [1] worked out at 70%; with Mus musculus [2], 85%; in the data set on Mus musculus [3] it was 62%; in the data set on Mus musculus [10], 62%; in the data set on Mus musculus [11] it was 65%. Moreover, the inhibition entry in data set [4], in data set [5] and in data set [6] was “inactive” in each case. The Selectivity ratio in the data set with Mus musculus [7] worked out at 0.7294. Besides, the inhibition in data set [8] was 82%; in data set [9], 68%. Moreover, in the data set with Mus musculus [12], the Time was determined as 6.25 s. Also, the Imax in the data set with Mus musculus [13] came to 85%.
Take `Cc1sc(N)nc1-c1ccc(CCN2CCN(c3nc4ccccc4nc3Cl)CC2)cc1`: the inhibition in vivo at 10 mg/kg in the data set on Mus musculus [1] was 80%; in the data set on Mus musculus [2] it was 80%; in the data set on Mus musculus [3], 86%; in the data set with Mus musculus [10] it was 86%; in the data set on Mus musculus [11], 65%. Further, the inhibition entry in data set [5] and in data set [6] was “inactive” in each case. Besides, in the data set on Mus musculus [7], the Selectivity ratio is reported as 1.075. Further, the inhibition in [8] and in data set [9] was 0% in each case. For the same molecule, in the data set on Mus musculus [12], the Time worked out at 23.5 s. The Imax with Mus musculus [13] came to 80%.
With `CNc1nc(-c2ccc(CCN3CCN(c4nc5ccccc5nc4OC)CC3)cc2)cs1`, the inhibition in vivo at 10 mg/kg is 85% with Mus musculus [1]; 60% with Mus musculus [2]; 51% in the data set with Mus musculus [3]; 51% with Mus musculus [10]; 65% in the data set on Mus musculus [11]. For the same molecule, the inhibition entry in data set [4], in [5] and in [6] was “inactive” throughout. Besides, the Selectivity ratio with Mus musculus [7] came out at 0.6. The figures for the inhibition in [8] and in data set [9] were 40% and 58%, respectively. In addition, the Time in the data set on Mus musculus [12] is 10.67 s. Besides, the Imax in the data set on Mus musculus [13] is recorded as 85%.
Turning to `Cc1sc(N)nc1-c1ccc(CCN2CCN(c3cnc4ccccc4n3)CC2)cc1`, the inhibition in vivo at 10 mg/kg in the data set on Mus musculus [1] stood at 80%; with Mus musculus [2], 95%; with Mus musculus [3], 31%; with Mus musculus [10], 31%; in the data set on Mus musculus [11] it was 60%. The inhibition result in data set [5] and in data set [6] was “inactive” each time. Besides, the Selectivity ratio in the data set on Mus musculus [7] stood at 0.3263. In addition, the values for the inhibition in data set [8] and in data set [9] were 0% and 58%, respectively. Besides, in the data set with Mus musculus [12], the Time worked out at 2.64 s. In the data set on Mus musculus [13], the Imax worked out at 95%.

(Values after ChEMBL document CHEMBL3044879, “Design, synthesis, and preliminary in vitro and in vivo pharmacological evaluation of 4-{4-[2-(4-(2-substitutedquinoxalin-3-yl)piperazin-1-yl)ethyl]phenyl}thiazoles as atypical antipsychotic agents” (Med Chem Res, 2013).)
